Test system: nuclear protein kinase C-δ
Assay: confocal-based high-content screening measuring the quantity of nuclear protein kinase C-δ in GR10 cells
Assay type: cell-based
Conditions: 24 hours treatment, fluorescence intensity (FIG. 3)
Excerpt: Please refer to FIG. 1. […] To investigate the growth-inhibiting effect of the nuclear protein kinase C-δ inhibitor of the present disclosure on the non-small-cell lung cancer cells resistant to the epidermal growth factor receptor-tyrosine kinase inhibitor, the present experimental example utilizes the screening system shown in FIG. 1 to measure whether the nuclear protein kinase C-δ inhibitor of the present disclosure can inhibit the production of nuclear protein kinase C-δ in the cancer cells.
In the present experimental example, gefitinib-resistant non-small-cell lung cancer cells (gefitinib-resistant 10 cells, hereinafter “GR10 cells”) are used as the cell model. In Example 1 to Example 4, GR10 cells are respectively treated with nintedanib esylate (hereinafter “Nin”), ponatinib (hereinafter “Pon”), regorafenib (hereinafter “Reg”) or cobimetinib (hereinafter “Cob”) for 24 hours, and the quantity of nuclear protein kinase C-δ within the GR10 cells is determined by confocal-based high-content image analysis. On the other hand, the present experimental example further includes Comparative Example 1 and Comparative Example 2. […]
Please refer to FIG. 2A to FIG. 2F and FIG. 3. […] FIG. 3 is a comparative diagram of fluorescence intensity of the GR10 cells after treatment of Example 1 to Example 4, Comparative Example 1 and Comparative Example 2. […]

Cc1ccc(C(=O)Nc2ccc(CN3CCN(C)CC3)c(C(F)(F)F)c2)cc1C#Cc1cnc2cccnn12 [Pon, ponatinib]
concentration at which a great ability to inhibit nuclear protein kinase C-δ is performed: greater than 0.1 μM

From patent US20240261279A1, “METHOD FOR TREATING LUNG CANCER” (priority 2021, published 2024)
